Source: PubChem BioAssay (NCI)
Several values for one entry are separate records, joined by “and”; a condition that tells them apart may be missing. Equal entries are not always repeated.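 Five concentrations, 48 hours, 96-well plates. Abbreviation: GI50, concentration required for 50% inhibition of growth. The concentration for full growth arrest is given as TGI.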

Tests used:
Test in all cases: NCI tumour cell line growth inhibition, 48 h
786-0 renal = system: 786-0 renal
CAKI-1 renal = system: CAKI-1 renal
OVCAR-4 ovarian = system: OVCAR-4 ovarian
NCI-H23 lung = system: NCI-H23 lung
U251 CNS = system: U251 CNS
MOLT-4 leukemia = system: MOLT-4 leukemia
OVCAR-5 ovarian = system: OVCAR-5 ovarian
HCC-2998 colon = system: HCC-2998 colon
SW-620 colon = system: SW-620 colon
OVCAR-8 ovarian = system: OVCAR-8 ovarian

| SMILES | GI50 (786-0 renal) | TGI (786-0 renal) | GI50 (CAKI-1 renal) | TGI (CAKI-1 renal) | GI50 (OVCAR-4 ovarian) | TGI (OVCAR-4 ovarian) | GI50 (NCI-H23 lung) | TGI (NCI-H23 lung) | GI50 (U251 CNS) | TGI (U251 CNS) | GI50 (MOLT-4 leukemia) | TGI (MOLT-4 leukemia) | GI50 (OVCAR-5 ovarian) | TGI (OVCAR-5 ovarian) | GI50 (HCC-2998 colon) | TGI (HCC-2998 colon) | GI50 (SW-620 colon) | TGI (SW-620 colon) | TGI (OVCAR-8 ovarian) | GI50 (OVCAR-8 ovarian) |
| --- | --- | --- | --- | --- | --- | --- | --- | --- | --- | --- | --- | --- | --- | --- | --- | --- | --- | --- | --- | --- |
| CN(CCCNC(=O)Cc1ccc2ccc3cccc4ccc1c2c34)CCCNc1cc(-c2ccc3ccccc3c2)nc2ccccc12 | 1.53 µM | 2.97 µM | 1.8 µM | 3.55 µM | 1.46 µM | 2.78 µM | 1.68 µM | 3.18 µM | 1.6 µM | 3.05 µM | 1190 nM | 2.57 µM | 1820 nM | 3.28 µM | 1.48 µM | 2.98 µM | 0.465 µM | 1.7 µM | – | – |
| CC(C)CNC(=O)O | – | > 100 µM | – | > 100 µM | – | > 100 µM | – | > 100 µM | – | > 100 µM | – | > 100 µM | – | > 100 µM | – | – | – | > 100 µM | > 100 µM | – |
| COc1ccc(Nc2c3ccccc3nc3occ(Cl)c23)cc1 | 0.0335 µM | 21 µM | < 0.01 µM | 16.3 µM | 0.73 µM | > 86.6 µM | 0.0549 µM | 28.8 µM | – | – | 26.6 nM | > 44.5 µM | 269 nM | > 100 µM | < 0.01 µM | 0.0909 µM | < 0.01 µM | 18.4 µM | – | 0.0476 µM |
| C=C1C(=O)O[C@H]2[C@H]1CC/C(COC(=O)c1ccc(Cl)nc1)=C\CC[C@@]1(C)O[C@@H]21 | 1.75 µM | 3.53 µM | – | – | 4.49 µM | 18.4 µM | 3.08 µM | 12.4 µM | 4.85 µM | 15.9 µM | 2570 nM | 7.2 µM | 2950 nM | 9.4 µM | 4.68 µM | 18 µM | 1.23 µM | 2.96 µM | 12.7 µM | 3.26 µM |
| CCCCOC(=O)NC(=O)c1cn(CCCOC(=O)NCCCCCCNC(=O)OCCCn2cc(C(=O)NC(=O)OCCCC)c(=O)[nH]c2=O)c(=O)[nH]c1=O | – | > 100 µM | – | – | – | > 100 µM | – | > 100 µM | – | > 100 µM | – | – | – | > 100 µM | – | > 100 µM | – | > 100 µM | > 100 µM | – |
| C=C1C[C@]23CCC4C(C)(C)C(=O)CC[C@]4(C)C2C[C@H]1C(O)C3=O (stereo partly drawn) | – | > 75 µM | – | – | – | > 75 µM | – | > 75 µM | – | > 75 µM | – | > 75 µM | – | – | – | – | – | > 75 µM | > 75 µM | – |
| O=C1CC2C(=O)N(Cc3ccccc3)C1C=C2S(=O)(=O)c1ccccc1 (stereo not drawn) | – | > 100 µM | – | – | – | > 100 µM | – | > 100 µM | – | > 100 µM | – | > 100 µM | – | – | – | > 100 µM | – | > 100 µM | > 100 µM | – |
| CC(C)OC(=O)NNc1cc(Cl)ccc1Cl | – | > 100 µM | – | > 100 µM | – | – | – | > 100 µM | – | > 100 µM | – | > 100 µM | – | > 100 µM | – | > 100 µM | – | > 100 µM | > 100 µM | – |
| CC(C)CCCC(C)[C@H]1CCC2[C@H]3C(CC[C@@]21C)[C@@]1(C)CCC=C[C@]12C[C@@H]2[C@@H]3O (stereo partly drawn) | – | > 100 µM | – | > 100 µM | – | > 100 µM | – | – | – | > 100 µM | – | > 100 µM | – | > 100 µM | – | > 100 µM | – | > 100 µM | > 100 µM | – |
| N.N.N.N.[Cl-].[Co+3].[N-]=[N+]=[N-].[N-]=[N+]=[N-] | > 100 µM | > 100 µM | – | – | > 100 µM | > 100 µM | > 100 µM | > 100 µM | > 100 µM | > 100 µM | 38600 nM | > 100 µM | > 100000 nM | > 100 µM | > 100 µM | > 100 µM | > 100 µM | > 100 µM | > 100 µM | > 100 µM |
| CC(C)N=c1cc2n(-c3ccc(Cl)cc3)c3ccccc3nc-2cc1Nc1ccc(Cl)cc1 | 1.52 µM and 3.12 µM | > 100 µM | 1.73 µM | > 20.9 µM | 1.29 µM | > 100 µM | – | – | 1.07 µM and 3.11 µM | > 100 µM | 2560 nM | > 100 µM | 2150 nM | > 100 µM | – | – | 2.96 µM | > 100 µM | > 100 µM | 2.79 µM |
| COc1ccc(-c2c[nH]c(=S)n2-c2ccc(OC)cc2)cc1 | > 50 µM | > 50 µM | > 50 µM | > 50 µM | – | – | > 50 µM | > 50 µM | > 50 µM | > 50 µM | > 50000 nM | > 50 µM | > 50000 nM | > 50 µM | – | – | > 50 µM | > 50 µM | > 50 µM | > 50 µM |
| COc1ccc(-c2ccc(/C=N/n3c(C)n[nH]c3=S)o2)c([N+](=O)[O-])c1 | 91.1 µM | > 100 µM | > 100 µM | > 100 µM | > 100 µM | > 100 µM | > 100 µM | > 100 µM | – | – | > 100000 nM | > 100 µM | > 100000 nM | > 100 µM | > 100 µM | > 100 µM | > 100 µM | > 100 µM | > 100 µM | 84 µM |
| N#C/C(=C/N1CCN(C(=O)c2ccco2)C1=S)C(=O)c1ccccc1 | 16.1 µM | 44.6 µM | 12.5 µM | 44.4 µM | 29.8 µM | 93.2 µM | 15.2 µM | 43.5 µM | 17 µM | > 100 µM | 43700 nM | > 100 µM | – | – | – | – | 5.94 µM | 38.3 µM | > 100 µM | 25.4 µM |
| Cc1ccc(S(=O)(=O)NCCNc2nccc(-c3c(-c4ccc(F)cc4)nc4sccn34)n2)cc1 | 5.65 µM | 26.8 µM | – | – | 4.98 µM | 46.7 µM | 7.14 µM | 70.9 µM | 4.72 µM | 22.6 µM | – | – | > 100000 nM | > 100 µM | > 100 µM | > 100 µM | – | – | 53.8 µM | 5 µM |
| CC(=O)/C=C/c1ccc(C#Cc2ccccc2)s1 | 12.5 µM | 25 µM | 19.3 µM | 36.2 µM | 13.1 µM | 28.6 µM | 14.4 µM | 27.4 µM | 16.8 µM | 30.5 µM | – | – | 15900 nM | 29.7 µM | 14.7 µM | 27.8 µM | 19.4 µM | 38.1 µM | 57.3 µM | 19 µM |
| COc1ccc2c(c1)[C@@]13CCCC[C@H]1[C@@H](C2)N(C)CC3=O | – | 32.8 µM | – | > 100 µM | – | 33.3 µM | – | 31.8 µM | – | 58.9 µM | – | > 100 µM | – | 33.3 µM | – | 31.5 µM | – | – | 42.1 µM | – |
